Test results: ChEMBL document CHEMBL1150514, “Synthesis and HIV-1 reverse transcriptase inhibition properties of two new methylenephosphonate analogues of 3-azido-3-deoxythymidine-5-triphosphate” (Bioorg Med Chem Lett, 1995)

target: Human immunodeficiency virus type 1 reverse transcriptase (Human immunodeficiency virus 1, UniProt Q72547); test: Inhibitory activity against HIV-1 reverse transcriptase

| Compound | IC50 |
| --- | --- |
| Cc1cn(C2CC(N=[N+]=[N-])C(COP(=O)(O)CP(=O)(O)CP(=O)(O)O)O2)c(=O)[nH]c1=O (stereo not drawn) | 48 µM |
| Cc1cn(C2CC(N=[N+]=[N-])C(COP(=O)(O)CCCP(=O)(O)O)O2)c(=O)[nH]c1=O (stereo not drawn) | 39 µM |
| Cc1cn([C@H]2C[C@H](N=[N+]=[N-])[C@@H](CO[P@](=O)(O)O[P@](=O)(O)OP(=O)(O)O)O2)c(=O)[nH]c1=O [ZIDOVUDINE TRIPHOSPHATE] | 0.043 µM |
